{
  "source": "patent US11197862B2",
  "about": "“Methods of preventing toxicity of platinum drugs” (XOMICS BIOPHARMA, INC., priority 2015, dated 2021)",
  "key": {"[1]": {"test_system": "HT-29 cells", "assay": "Anti-proliferation study (SRB assay) in HT-29 cells", "conditions": "co-treatment; FIG. 11", "procedure": "(§1) The potency was determined by the sulforhodamine B (SRB) assay in 96-well plates. […] Seeding density was 3000 cells/well for both cell lines."}, "[2]": {"biological_target": "T1, OCT2 (Homo sapiens, UniProt O15244)", "T1 sequence (O15244 1-555)": "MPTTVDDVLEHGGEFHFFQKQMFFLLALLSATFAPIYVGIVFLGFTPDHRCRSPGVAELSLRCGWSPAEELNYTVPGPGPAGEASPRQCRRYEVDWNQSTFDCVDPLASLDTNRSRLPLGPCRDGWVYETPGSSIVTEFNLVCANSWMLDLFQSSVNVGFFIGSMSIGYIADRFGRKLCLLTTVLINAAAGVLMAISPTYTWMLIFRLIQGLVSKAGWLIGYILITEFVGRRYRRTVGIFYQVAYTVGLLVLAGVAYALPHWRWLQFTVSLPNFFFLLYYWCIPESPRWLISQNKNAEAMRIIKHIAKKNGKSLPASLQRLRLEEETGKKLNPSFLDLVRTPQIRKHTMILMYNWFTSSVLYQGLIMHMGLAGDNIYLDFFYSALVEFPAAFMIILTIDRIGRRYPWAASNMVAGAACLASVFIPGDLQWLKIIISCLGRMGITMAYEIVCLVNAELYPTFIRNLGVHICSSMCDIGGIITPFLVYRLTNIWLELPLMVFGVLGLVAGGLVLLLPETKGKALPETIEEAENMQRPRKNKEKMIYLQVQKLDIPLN", "assay": "Inhibition of OCT2-mediated oxaliplatin transport in 100% human serum or HBSS containing 4% BSA (IC50,app)", "conditions": "for transporter preference in inhibiting oxaliplatin transport: serum or 4% BSA"}, "[3]": {"conditions": "cited from earlier work"}, "[4]": {"assay": "Published clinical pharmacokinetic data", "conditions": "from published Cmax and protein binding"}, "[5]": {"test_system": "MDCK cells expressing OCT2, MATE1 and MATE2K", "assay": "LDH cytotoxicity of oxaliplatin in MDCK-II triple-transporter model", "conditions": "for effect on oxaliplatin induced cytotoxicity in OCT2 expressing cells: buflomedil 3 and 6 μM, dolutegravir 10 μM, erlotinib 6 μM, cimetidine 6 μM, FIG. 6", "procedure": "A triple-transporter model for OCT2(SLC22A2), MATE1(SLC47A1), and MATE2-K(SLC47A2) was created by transfecting fully confluent MDCK-II cell monolayers with DNA mixture containing the plasmids encoding OCT2, MATE1, and MATE-2K at concentrations of 40, 15, and 5 ng/μl, respectively. The OCT2 was expressed on the basolateral cell membrane, and MATE1 and MATE2-K were expressed on the apical side of the cells. […] The apical medium was adjusted to pH 6.7 with 25 mM of 2-(N-morpholino) ethanesulfonic acid (MES).\nAfter removal of the media, a drug-free medium was added in both sides. After incubation 24 hours, the medium was collected, and the lactate dehydrogenase (LDH) activity in the medium was measured using an LDH cytotoxicity assay kit (G-Biosciences. St. Louis, Mo.; or Biochain, Newark, Calif.), according to the manufacturers' instructions. Cytotoxicity was evaluated by measuring the LDH activity in the medium.\nCytotoxicity was tested using the same procedure described above."}, "[6]": {"biological_target": "T1, OCT2", "assay": "Inhibition of OCT2-mediated oxaliplatin uptake in transfected MDCK-II cells (protein-free HBSS)", "conditions": "for inhibition at 30 min, 5 μM / inhibition at 30 min, 50 μM / potency estimated from few doses at 30 min: human", "text": "Fully confluent MDCK cell monolayers were transfected with either cDNA plasmids encoding the human transporter to be tested or a GFP control. […] The cells were then washed with ice-cold PBS and lysed with 50:50 acetonitrile:H2O. Intracellular content of the substrate was quantified by LC/MS/MS or a MicroBeta radiometric plate reader."}, "[7]": {"test_system": "cells co-expressing OCT2 and MATE1", "assay": "Intracellular oxaliplatin content in cells co-expressing OCT2 and MATE1", "type": "cell-based", "conditions": "oxaliplatin 100 μM in 4% BSA HBSS, 90 min", "text": "In most naturally occurring cells, uptake transporters co-exist with efflux transporters. It is the interplay between the uptake and efflux transporters that determines the net intracellular accumulation of a substrate. One example is in the proximal tubule epithelial cells in the kidney, where the basolaterally expressed transporters, mainly OCT2, work in concert with the apically expressed MATE1 and MATE2K [5]. […] Cells with single expression of OCT2 or GFP mock were also used as a control."}, "[8]": {"test_system": "HepG2 cells", "assay": "Anti-proliferation study (SRB assay) in HepG2 cells", "conditions": "FIG. 10", "procedure": "as §1"}, "[9]": {"biological_target": "T1, OCT2", "assay": "Inhibition of OCT2-mediated metformin uptake in transfected MDCK-II cells"}, "[10]": {"conditions": "human, in vivo"}, "[11]": {"biological_target": "T1, OCT2", "assay": "Inhibition of OCT2-mediated ASP+ uptake (Kido et al., Giacomini group)", "conditions": "human, cell line expressing human OCT2 (cell line not given), probe ASP+ 5 μM"}, "[12]": {"biological_target": "T1, OCT2", "conditions": "cited from earlier work"}, "[13]": {"biological_target": "T1, OCT2"}, "[14]": {"test_system": "Balb/c mice exposed to acute treatment with Oxaliplatin", "assay": "Dynamic test (mechanical pain threshold) after a single oxaliplatin administration", "type": "in vivo, mouse", "conditions": "24 hours after single OXA 3.5 mg/kg iv; DTG 4 mg/kg ip 1 hour before; CPC 4 mg/kg iv co-administered; listed as CPC", "method": "OXA vehicle, OXA, CPC, DTG, DTG+OXA and CPC+OXA were administered once time. In the group co-administered with OXA and DTG. DTG was injected intraperitoneally 1 hour before the administration of OXA. In the group co-administered with OXA and CPC, CPC was co-administered with OXA intravenously. Mechanical allodynia and cold sensory threshold (dynamic test and cold plate test) were performed 24 and 48 hours after the treatment, respectively, using the methods described in EXAMPLE 15 Plasma Sample Collection"}, "[15]": {"biological_target": "T1, OCT2", "assay": "in vitro"}, "[16]": {"biological_target": "T1, OCT2", "assay": "in vitro", "remark": "listed apart in the source"}, "[17]": {"conditions": "MDCK-II cells transfected with human OCT2, probe oxaliplatin 10 μM"}, "[18]": {"conditions": "IC50 (μM) (substrate Oxaliplatin)"}},
  "note": "Read-outs that look alike come from different tables or passages of the source.",
  "data": [
    {"smiles": "C#Cc1cccc(Nc2ncnc3cc(OCCOC)c(OCCOC)cc23)c1", "note": "[Erlotinib]", "values": [
      {"measurement": "effect on cisplatin anti-proliferation potency in HT-29", "setting": "[1]", "value": "ignorable impact on cisplatin cytotoxicity"},
      {"measurement": "transporter preference in inhibiting oxaliplatin transport", "setting": "[2]", "value": "potent in suppressing OCT1 as well as OCT2"},
      {"measurement": "Mean Cmax", "setting": "[3]; 150 mg po, day 24", "value": 2120, "unit": "ng/mL"},
      {"measurement": "Mean T1/2", "setting": "[3]; 150 mg po, day 24", "value": 18.2, "unit": "h"},
      {"measurement": "Mean Cmax", "setting": "[3]; 150 mg po, single dose", "value": 1140, "unit": "ng/mL"},
      {"measurement": "Mean T1/2", "setting": "[3]; 150 mg po, single dose", "value": 20, "unit": "h"},
      {"measurement": "Plasma protein binding (%)", "setting": "[3]; published data", "value": 93, "unit": "%"},
      {"measurement": "Cmax", "setting": "[3]; read-out: Mean Cmax, 150 mg po, day 24", "value": 5400, "unit": "nM"},
      {"measurement": "Cmax", "setting": "[3]; read-out: Mean Cmax, 150 mg po, single dose", "value": 2900, "unit": "nM"},
      {"measurement": "Cmax", "setting": "[3]; read-out: Plasma peak total concentration Cmax, published clinical pharmacokinetic data", "value": 5400, "unit": "nM"},
      {"measurement": "Plasma peak unbound concentration Cmax,u", "setting": "[4]", "value": 380, "unit": "nM"},
      {"measurement": "cytotoxicity of the inhibitor itself", "setting": "[5]; 6 μM, without oxaliplatin, FIG. 6B", "value": "showed cytotoxicity itself without adding oxaliplatin"},
      {"measurement": "effect on oxaliplatin induced cytotoxicity in OCT2 expressing cells", "setting": "[5]", "value": "its EC50 value could not be obtained due to an ambiguous fitting"},
      {"measurement": "inhibition at 30 min, 5 μM", "setting": "[6]; [17]", "value": 93, "unit": "%"},
      {"measurement": "inhibition at 30 min, 50 μM", "setting": "[6]; [17]", "value": 106, "unit": "%"},
      {"measurement": "cellular accumulation of oxaliplatin in cells co-expressing OCT2 and MATE1", "setting": "[7]", "value": "reduced cellular accumulation of oxaliplatin"}
    ]},
    {"smiles": "CN/C(=N/CCSCc1nc[nH]c1C)NC#N", "note": "[Cimetidine]", "values": [
      {"measurement": "IC50", "setting": "[2]; IC50,app (μM), apparent inhibition constant in 100% human serum or HBSS containing 4% BSA, OCT2-mediated oxaliplatin uptake", "value": 36.8, "unit": "µM"},
      {"measurement": "IC50", "setting": "[2]; OCT2 IC50, app (μM), 100% human serum or HBSS containing 4% BSA, 20 μM or 100 μM oxaliplatin", "value": "36.8 ± 13.6", "unit": "µM"},
      {"measurement": "transporter preference in inhibiting oxaliplatin transport", "setting": "[2]", "value": "even more preference towards inhibiting oxaliplatin transport through MATE1"},
      {"measurement": "Plasma protein binding (%)", "setting": "[3]; published data", "value": 20, "unit": "%"},
      {"measurement": "effect on anti-tumor potency of oxaliplatin in HepG2", "setting": "[8]", "value": "nor cimetidine"},
      {"measurement": "effect on oxaliplatin induced cytotoxicity in OCT2 expressing cells", "setting": "[5]", "value": "did not reduce oxaliplatin cytotoxicity"},
      {"measurement": "IC50", "setting": "[9]", "value": "57.6 ± 6.9", "unit": "µM"},
      {"measurement": "Plasma peak unbound concentration Cmax,u", "setting": "[10]", "value": 9600, "unit": "nM"},
      {"measurement": "potency estimated from few doses", "setting": "[11]", "value": 26.4, "unit": "µM"},
      {"measurement": "Inhibition % @ 20 μM (substrate ASP+)", "setting": "[12]; OCT2-mediated uptake, ASP+ 5 μM in HBSS, from Kido Y et al. J Med Chem 2011", "value": 43, "unit": "%"},
      {"measurement": "IC50", "setting": "[6]", "value": 9.71, "unit": "µM"},
      {"measurement": "inhibition at 30 min, 5 μM", "setting": "[6]", "value": 34, "unit": "%"},
      {"measurement": "inhibition at 30 min, 50 μM", "setting": "[6]", "value": 83, "unit": "%"},
      {"measurement": "potency estimated from few doses at 30 min", "setting": "[6]; [18]", "value": 9.7, "unit": "µM"}
    ]},
    {"smiles": "NC(=O)OCC(O)COc1ccc(Cl)cc1", "note": "(stereo not drawn) [Chlorphenesin Carbamate]", "values": [
      {"measurement": "IC50 (μM) (substrate Metformin)", "setting": "[13]", "value": "no"},
      {"measurement": "Mechanical Pain Threshold (MPT), mechanical hypersensitivity", "setting": "[14]", "value": "no such effect"},
      {"measurement": "fold less potent as inhibitor of OCT2-mediated metformin and oxaliplatin uptake than of ASP+ uptake", "setting": "[6]; comparison of Table 1 potencies", "value": "more than 100 fold"},
      {"measurement": "inhibition at 30 min, 5 μM", "setting": "[6]", "value": 28, "unit": "%"},
      {"measurement": "inhibition at 30 min, 50 μM", "setting": "[6]", "value": 36, "unit": "%"},
      {"measurement": "potency estimated from few doses at 30 min", "setting": "[6]; [18]", "value": 90.4, "unit": "µM"}
    ]},
    {"smiles": "CCNC(=O)[C@@H]1CCCN1C(=O)[C@H](CCCNC(=N)N)NC(=O)[C@H](CC(C)C)NC(=O)[C@@H](CC(C)C)NC(=O)[C@H](Cc1ccc(O)cc1)NC(=O)[C@H](CO)NC(=O)[C@H](Cc1c[nH]c2ccccc12)NC(=O)[C@H](Cc1c[nH]cn1)NC(=O)[C@@H]1CCC(=O)N1", "note": "[Leuprolide]", "values": [
      {"measurement": "Cmax", "setting": "[3]; human, in vivo", "value": 17, "unit": "nM"},
      {"measurement": "Plasma protein binding (%)", "setting": "[3]; human, in vivo", "value": 46, "unit": "%"},
      {"measurement": "potency estimated from few doses", "setting": "[15]", "value": 2.8, "unit": "µM"},
      {"measurement": "IC50", "setting": "[9]", "value": 3.62, "unit": "µM"},
      {"measurement": "Plasma peak unbound concentration Cmax,u", "setting": "[10]", "value": 10, "unit": "nM"},
      {"measurement": "Inhibition % @ 20 μM (substrate ASP+)", "setting": "[12]; human, 20 μM", "value": 88, "unit": "%"},
      {"measurement": "IC50", "setting": "[6]", "value": 1.57, "unit": "µM"},
      {"measurement": "inhibition at 30 min, 5 μM", "setting": "[6]", "value": 76, "unit": "%"},
      {"measurement": "inhibition at 30 min, 50 μM", "setting": "[6]", "value": 97, "unit": "%"},
      {"measurement": "potency estimated from few doses at 30 min", "setting": "[6]", "value": 1.57, "unit": "µM"},
      {"measurement": "inhibition at 5 min, 5 μM", "setting": "[16]", "value": 58, "unit": "%"},
      {"measurement": "inhibition at 5 min, 50 μM", "setting": "[16]", "value": 91, "unit": "%"}
    ]}
  ]
}
